Tests used:
Experiment in all cases: MIC by agar dilution method
Format in all cases: cell-based
Set-up in all cases: unit not given here
[1] = system: Pseudomonas aerugenosa GN
Experimental: (§1) The following Table 1 show minimum inhibitory concentrations (MIC) against Gram-positive and Gram-negative bacteria of representative compounds of the invention. MIC was measured by agar dilution method.

[2] = system: Enterobacter cloacae
Experimental: as §1

[3] = system: Staph. epidermidis
Experimental: as §1

[4] = system: Serratia marcescens
Experimental: as §1

[5] = system: Escherichia coli NIHJ
Experimental: as §1

[6] = system: Proteus mirabilis
Experimental: as §1

[7] = system: Bacillus subtilis
Experimental: as §1

[8] = system: Salmonella typhi
Experimental: as §1

[9] = system: Pseudomonas aerugenosa
Experimental: as §1

[10] = system: Staph. aureus Smith
Experimental: as §1

[11] = system: Klebsiella pneumoniae
Experimental: as §1

Row | Molecule | Minimum Inhibitor Concentration (MIC) [1] | Minimum Inhibitor Concentration (MIC) [2] | Minimum Inhibitor Concentration (MIC) [3] | Minimum Inhibitor Concentration (MIC) [4] | Minimum Inhibitor Concentration (MIC) [5] | Minimum Inhibitor Concentration (MIC) [6] | Minimum Inhibitor Concentration (MIC) [7] | Minimum Inhibitor Concentration (MIC) [8] | Minimum Inhibitor Concentration (MIC) [9] | Minimum Inhibitor Concentration (MIC) [10] | Minimum Inhibitor Concentration (MIC) [11]
1 | Nc1nc(/C(=N/OCc2cc(Cl)c(O)c(O)c2Cl)C(=O)NC2C(=O)N3C(C(=O)[O-])=C(CSc4cnns4)CS[C@H]23)cs1.[Na+] (stereo partly shown) [Example 1, Sodium 7-[2-(2-aminothiazol-4-yl)-2(Z)-(2,5-dichloro-3,4-dihydroxybenzyloxyimino)acetamido]-3-(1,2,3-thiadiazol-5-yl)thiomethyl-3-cephem-4-carboxylate] | 0.39 | 0.20 | 0.20 | 0.10 | 0.05 | 0.05 | 0.78 | 0.10 | 0.39 | 0.10 | 0.05
2 | Nc1nc(/C(=N/OCc2ccc(O)c(O)c2Cl)C(=O)NC2C(=O)N3C(C(=O)[O-])=C(CSc4cnns4)CS[C@H]23)cs1.[Na+] (stereo partly shown) [Example 2, Sodium 7-[2-(2-aminothiazol-4-yl)-2(Z)-(2-chloro-3,4-dihydroxybenzyloxyimino)acetamido]-3-(1,2,3-thiadiazol-5-yl)thiomethyl-3-cephem-4-carboxylate] | 6.25 | 0.78 | 0.20 | 0.78 | 0.78 | 0.05 | 0.20 | 0.20 | 0.78 | 0.20 | 0.20
3 | C[n+]1ccc(SCC2=C(C(=O)[O-])N3C(=O)C(NC(=O)/C(=N\OCc4cc(Cl)c(O)c(O)c4Cl)c4csc(N)n4)C3SC2)cc1 (stereo not shown) [Example 3, 7-[2-(2-aminothiazol-4-yl)-2(Z)-(2,5-dichloro-3,4-di hydroxybenzyloxyimino)acetamido]-3-(N-methylpyridin-4-yl)thiomethyl-3-cephem-4-carboxylic acid] | 0.39 | 0.20 | 0.39 | 0.05 | 0.05 | 0.025 | 0.78 | 0.39 | 0.39 | 0.39 | 0.05
4 | Nc1nc(/C(=N/OCc2ccc(O)c(O)c2)C(=O)NC2C(=O)N3C(C(=O)[O-])=C(CSc4cnns4)CS[C@H]23)cs1.[Na+] (stereo partly shown) [Example 5, Sodium 7-[2-(2-aminothiazol-4-yl)-2(Z)-(3,4-dihydroxybenzyloxyimino)acetamido]-3-(1,2,3-thiadiazol-5-yl)thiomethyl-3-cephem-4-carboxylate] | 0.78 | 0.78 | 0.78 | 0.10 | 0.05 | 0.10 | 0.39 | 0.10 | 0.39 | 0.10 | 0.05
5 | Nc1nc(/C(=N/OCc2cc(O)c(O)c(Cl)c2)C(=O)NC2C(=O)N3C(C(=O)O)=C(CSc4cnns4)CSC23)cs1 (stereo not shown) [Example 7] | 1.56 | 6.25 | 0.78 | < 0.05 | < 0.05 | < 0.05 | 1.56 | < 0.05 | 0.78 | 0.01 | < 0.05
6 | Nc1nc(/C(=N/OCc2cc(F)c(O)c(O)c2F)C(=O)NC2C(=O)N3C(C(=O)[O-])=C(CSc4cnns4)CS[C@H]23)cs1.[Na+] (stereo partly shown) [Example 8, Sodium 7-[2-(2-aminothiazol-4-yl)-2(Z)-(2,5-difluoro-3,4-dihydroxybenzyloxyimino)acetamido]-3-(1,2,3-thiadiazol-5-yl)thiomethyl-3-cephem-4-carboxylate] | 0.78 | 3.13 | 0.20 | < 0.05 | < 0.05 | < 0.05 | 1.56 | < 0.05 | 0.39 | 0.10 | < 0.05
7 | Nc1nc(/C(=N/OCc2cc(O)c(O)c(F)c2)C(=O)NC2C(=O)N3C(C(=O)O)=C(CSc4cnns4)CSC23)cs1 (stereo not shown) [Example 9, Sodium 7-[2-(2-aminothiazol-4-yl)-2(Z)-(5-fluoro-3,4-dihydroxybenzyloxyimino)acetamido]-3-(l,2,3-thiadiazol-5-yl)thiomethyl-3-cephem-4-carboxylate] | 1.56 | 6.25 | 0.78 | < 0.05 | < 0.05 | < 0.05 | 1.56 | < 0.05 | 0.78 | 0.10 | < 0.05
8 | Sodium 7-[2-(2-aminothiazol-4-yl)-2(Z)-(3,4-dihydroxybenzyloxyimino)acetamido]-3-(5-methyl-2-tetrazol-2-yl)thiomethyl-3-cephem-4-carboxylate [Example 6] | 1.56 | 1.56 | 1.56 | 0.20 | 0.05 | 0.10 | 0.39 | 0.20 | 0.78 | 0.10 | 0.10

— patent publication EP0400805A1, “Cephalosporin compounds and their use” (Ishimaru, Toshiyasu, priority 1989, dated 1990)
